The results in this text go back to patent EP0385952A2, “Use of a naphthalenmethanamino derivative as antiinflammatory agent and pharmaceutical compositions containing it” (SANDOZ AG, priority 1989, dated 1990).

Molecules are shown by their SMILES. pIC50: −log10 of the molar value. Where two headings read alike, the source gives them in different places.

Holding throughout (type): cell-based
The subject of data set [1] is lactate dehydrogenase release. The data set can be described thus: Cytotoxicity: release of lactate dehydrogenase. As to conditions: cytotoxicity control of the in vitro assays. As for the experimental part:
Macrophages 10 to 14 days old isolated from the bone marrow of mice are incubated in monolayers with the test compound in the presence of Concanavalin A (Con A) (100 µg/ml) as soluble stimulant. After 24 hours the cell-free medium is collected and macrophage activation is investigated biochemically as the extent of plasminogen activator release, assayed photometrically as the plasminogen-dependent amidolysis of D-Val-Phe-Lys-4-nitroanilide according to the principles described in J.C. Drapier et al., Biochemie 61 (1979) 463-471. Cell viability is assayed by measurement of lactate dehydrogenase release according to the method of H.U. Bergmeyer and E. Bernt, Methoden der Enzymatischen Analyse, 3. Auflage, Verlag Chemie (1974) 612-615, adapted as a kinetic assay using microtiter plates. All cultures are checked microscopically for qualitative morphological modification.
The test compound is added in various concentrations to monolayers of OF₁-mouse resident peritoneal macrophages isolated as described in J. Schnyder and M. Baggiolini, J. Exp. Med. 148 (1978) 435-450. […] The supernatants are then analysed by radioimmunoassay procedures for thromboxane B₂, prostaglandin E₂ and leukotriene C₄. Lactate dehydrogenase activities in the medium and cell lysates are also measured as an indication of cell toxicity.

For data set [2], the system named is OF₁-mouse resident peritoneal macrophages. Description: Zymosan-induced release of TXB₂, PGE₂ and LTC₄. As to conditions: Peritoneal macrophage, 2 hours. The method, then: The test compound is added in various concentrations to monolayers of OF₁-mouse resident peritoneal macrophages isolated as described in J. Schnyder and M. Baggiolini, J. Exp. Med. 148 (1978) 435-450. 0.5 ml of the suspension containing 1.2 x 10⁶ cells/ml DMEM (Dulbecco's modified Eagles medium, non-essential amino acids, 2 mM L-glutamine, 100 U/ml penicillin/streptomycin) containing 2 % heat-inactivated fetal calf serum and 20 U heparin/ml is added to each well of 24-well plates (diameter 1.6 cm) and allowed to adhere at 37°C for 2 hours in 5 % CO₂/air. The monolayers are then washed with PBS and 0.5 ml DMEM containing 1 % heat-inactivated fetal calf serum added. Various concentrations of the test substance in the same medium (containing a maximum final concentration of 1 % DMSO) are added, the final volume being 0.98 ml, and after 10 minutes at 37°C, the cells are stimulated by addition of 20 µl of a 1-20 v/v dilution of zymosan particles (Sigma Chemie, Deisenhofen, FRG) in 50 mg/ml PBS. After 2 hours at 37° C, the media are removed, centrifuged at 1300 g for 5 minutes and decanted. The cells are lysed with 1ml 0.01 % digitonin. The supernatants are then analysed by radioimmunoassay procedures for thromboxane B₂, prostaglandin E₂ and leukotriene C₄. Lactate dehydrogenase activities in the medium and cell lysates are also measured as an indication of cell toxicity.

The subject of a further data set is bovine platelets. The data set can be described thus: Thrombin-stimulated release from platelets. As to conditions: Bos taurus, Platelet.
Another data set deals with 12 + 15-lipoxygenase. Description: 12 + 15-lipoxygenase inhibition (neutrophil functions). As to conditions: read-out: IC₅₀ for 12 + 15-lipoxygenase.
In a further data set the test system is platelets. The data set can be described thus: Thromboxane B₂ production in platelets. As to conditions: Platelet, read-out: IC₅₀ for thromboxane B₂ production.
In the next data set the test system is neutrophils. Description: Neutrophil exocytosis assay (FMLP-stimulated enzyme release).

In the case of `CN(C/C=C/c1ccc(O)cc1)Cc1cccc2ccccc12` [compound of the invention, (E)-N-methyl-N-[3-(4-hydroxyphenyl)-2-propenyl]-1-naphthalene-methanamine], in data set [1], the “release of lactate dehydrogenase” value is “below 10%”. The pIC50 is 5.10 in data set [2] (read-out: IC₅₀ for LTC₄); 5.82 in data set [2] (read-out: IC₅₀ for PGE₂); 5.22 in data set [2] (read-out: IC₅₀ for TXB₂); less than 4.00 in the data set on bovine platelets (read-out: IC₅₀ for thrombin-stimulated release of N-glucosaminidase); less than 4.00 in the data set with bovine platelets (read-out: IC₅₀ for thrombin-stimulated release of serotonin); 4.00 in the data set on 12 + 15-lipoxygenase. Also, the pIC50 was 4.00 with platelets, less than 4.00 with neutrophils (read-out: IC₅₀ for FMLP-stimulated release of azurophil granule enzymes), less than 4.00 with neutrophils (read-out: IC₅₀ for FMLP-stimulated release of lysosomal enzymes) and less than 4.00 in the data set on neutrophils (read-out: IC₅₀ for FMLP-stimulated release of specific granule enzymes).
